This test deals with human breast cancer MDA-MB-231 cells. As to the kind of experiment: Inhibition of CXCL12-induced breast cancer cell migration (Transwell). It counts as cell-based. The following applies: 10 nM of the antagonist; 100 nM CXCL12; 15 hours. The protocol:
Transwell filter (polycarbonate filter, 8 μm diameter, Costar Company) was treated at 37° C. for 6 hours in 10 μg/mL fibronectin solution and air-dried. 100 nM of CXCL12 (R&D System Company) and 600 μL/well of buffer-A (0.1% bovine serum albumin, DMEM (GibcoBRL) containing 12 mM HEPES) containing the test compound were added to the lower chamber of the Transwell. The test compound and human breast cancer MDA-MB-231 cells (purchased from American Tissue Culture Collection), and 100 μL/well of buffer A containing 2×10^6 cells/mL were added to the upper chamber. […] Cutting off the filter part, adding 0.1 M sodium citrate/50% ethanol solution, and eluting crystal violet absorption at 550 nm was measured. […]
After 15 hours' incubation at 37° C. in 5% CO2 incubator, the upper surface of the filter was wiped and the cell was removed, and then the cell on the lower surface of the filter was fixed and stained with 25% methanol solution containing 0.5% crystal violet (Wako Pure Chemical Ind.), washed by distilled water and air-dried. Cutting off the filter part, adding 0.1 M sodium citrate/50% ethanol solution, and eluting crystal violet absorption at 550 nm was measured. […]

These results are taken from US8017585B2, “CXCR4 antagonist and use thereof” (priority 2002, dated 2011).

SMILES strings stand for the structures. Bridge positions count the residues as written; N and C are the ends. Square brackets hold non-standard residues; d marks the D form. Peptide text beside a SMILES is read from it. * marks the point of attachment. 2Nal = N[C@@H](Cc1ccc2ccccc2c1)C(=O)O; Benzoyl(4-F) = O=C(c1ccc(F)cc1)*; Cit = NC(=O)NCCC[C@H](N)C(=O)O

For the molecule `N=C(N)NCCC[C@H](NC(=O)[C@@H]1CSSC[C@H](NC(=O)[C@H](Cc2ccc3ccccc3c2)NC(=O)[C@H](CCCNC(=N)N)NC(=O)[C@H](CCCNC(=N)N)NC(=O)c2ccc(F)cc2)C(=O)N[C@@H](Cc2ccc(O)cc2)C(=O)N[C@@H](CCCNC(N)=O)C(=O)N[C@@H](CCCCN)C(=O)N[C@H](CCCCN)C(=O)N2CCC[C@H]2C(=O)N[C@@H](Cc2ccc(O)cc2)C(=O)N[C@@H](CCCNC(=N)N)C(=O)N[C@@H](CCCNC(N)=O)C(=O)N1)C(N)=O` [4F-benzoyl-TN14003, 4F-benzoyl-Arg-Arg-Nal-Cys-Tyr-Cit-Lys-DLys-Pro-Tyr-Arg-Cit-Cys-Arg-NH2] ({Benzoyl(4-F)}-RR[2Nal]CY[Cit]K[dK]PYR[Cit]CR-NH2; disulfide 4-13), the “CXCL12-induced migration of MDA-MB-231 cells” value was “inhibited”.
